From PMC10526857, “In Vitro Enzymatic Studies Reveal pH and Temperature Sensitive Properties of the CLIC Proteins” (Biomolecules, 2023)

What was measured:
CLIC3 [1] = molecular target: T1, CLIC3 (Homo sapiens, UniProt O95833); experiment: HEDS assay coupled to glutathione reductase, NADPH consumption at […] nm, Lineweaver-Burk; type: biochemical; conditions: 1 mM GSH, 250 µM NADPH, 0.5 µg/mL yeast GR, 10 µM CLIC, 5 mM potassium phosphate pH 7, 1 mM EDTA, 37 °C
T1 construct: recombinant, E. coli BL21(DE3), pET-28a His-tag cut off with thrombin, Ni-NTA and SEC purified

CLIC4 [2] = molecular target: T2, CLIC4 (Homo sapiens, UniProt Q9Y696); experiment: as above; type: biochemical; conditions: 1 mM GSH, 250 µM NADPH, 0.5 µg/mL yeast GR, 10 µM CLIC, 5 mM potassium phosphate pH 7, 1 mM EDTA, 37 °C
T2 construct: recombinant, E. coli, pGEX-4T-1 N-terminal GST tag cut off with thrombin, SEC purified

CLIC1 [3] = molecular target: T3, CLIC1 (Homo sapiens, UniProt O00299); conditions: 1 mM GSH, 250 µM NADPH, 0.5 µg/mL yeast GR, 10 µM CLIC, 5 mM potassium phosphate pH 7, 1 mM EDTA, 37 °C
CLIC3 [4] = molecular target: T1, CLIC3; experiment: inhibition of HEDS reductase activity, GR-coupled NADPH consumption at […] nm; type: biochemical; conditions: 10 µM inhibitor, 10 µM CLIC, 1 h preincubation at 4 °C; 1 mM HEDS, 1 mM GSH, 250 µM NADPH, 0.5 µg/mL GR, pH 7, 37 °C
CLIC4 [5] = molecular target: T2, CLIC4; experiment: as above; type: biochemical; conditions: 10 µM inhibitor, 10 µM CLIC, 1 h preincubation at 4 °C; 1 mM HEDS, 1 mM GSH, 250 µM NADPH, 0.5 µg/mL GR, pH 7, 37 °C
CLIC1 [6] = molecular target: T3, CLIC1; experiment: as above; type: biochemical; set-up: recombinant, E. coli BL21(DE3), pET-28a His-tag cut off with thrombin, Ni-NTA and SEC purified; conditions: 10 µM inhibitor, 10 µM CLIC, 1 h preincubation at 4 °C; 1 mM HEDS, 1 mM GSH, 250 µM NADPH, 0.5 µg/mL GR, pH 7, 37 °C

T1 sequence (O95833 whole entry): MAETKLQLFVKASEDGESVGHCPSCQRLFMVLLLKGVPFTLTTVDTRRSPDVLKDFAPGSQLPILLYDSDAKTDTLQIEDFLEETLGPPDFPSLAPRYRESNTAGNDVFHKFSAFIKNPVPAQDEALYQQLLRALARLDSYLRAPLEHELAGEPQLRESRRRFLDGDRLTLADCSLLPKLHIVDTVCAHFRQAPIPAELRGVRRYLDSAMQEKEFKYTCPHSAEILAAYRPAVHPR
T2 sequence (Q9Y696 whole entry): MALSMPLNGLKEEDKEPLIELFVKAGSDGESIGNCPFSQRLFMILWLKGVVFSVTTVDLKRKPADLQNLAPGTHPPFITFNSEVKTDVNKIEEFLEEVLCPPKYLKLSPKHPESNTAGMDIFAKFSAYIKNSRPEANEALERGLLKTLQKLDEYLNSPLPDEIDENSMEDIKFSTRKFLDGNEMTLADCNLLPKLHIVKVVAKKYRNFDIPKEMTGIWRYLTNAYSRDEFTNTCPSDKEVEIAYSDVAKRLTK

| Structure (SMILES) | Km (CLIC3 [1]) | Km (CLIC4 [2]) | Km (CLIC1 [3]) | residual activity (%) at 10 μM (CLIC3 [4]) | residual activity (%) at 10 μM (CLIC4 [5]) | residual activity (%) at 10 μM (CLIC1 [6]) |
| --- | --- | --- | --- | --- | --- | --- |
| OCCSSCCO [HEDS] | 266 µM | 345 µM | 274 µM | – | – | – |
| C[C@@H]1[C@H](O)[C@@H](C)/C=C/C=C/C=C/C=C/C=C/C=C/C=C/[C@H](O[C@@H]2O[C@H](C)[C@@H](O)[C@H](N)[C@@H]2O)C[C@@H]2O[C@](O)(C[C@@H](O)C[C@@H](O)[C@H](O)CC[C@@H](O)C[C@@H](O)CC(=O)O[C@H]1C)C[C@H](O)[C@H]2C(=O)O [amphotericin B] | – | – | – | Both rapamycin and amphotericin B caused inhibition of the enzymatic activity of all three proteins | Both rapamycin and amphotericin B caused inhibition of the enzymatic activity of all three proteins | with CLIC1′s activity virtually abolished by all three drugs |
| CO[C@H]1C[C@@H]2CC[C@@H](C)[C@@](O)(O2)C(=O)C(=O)N2CCCC[C@H]2C(=O)O[C@H]([C@H](C)C[C@@H]2CC[C@@H](O)[C@H](OC)C2)CC(=O)[C@H](C)/C=C(\C)[C@@H](O)[C@@H](OC)C(=O)[C@H](C)C[C@H](C)/C=C/C=C/C=C/1C [rapamycin] | – | – | – | Both rapamycin and amphotericin B caused inhibition of the enzymatic activity of all three proteins | Both rapamycin and amphotericin B caused inhibition of the enzymatic activity of all three proteins | with CLIC1′s activity virtually abolished by all three drugs |
